Results published in PMC4370192, “Discovery of Specific Inhibitors for Intestinal E. coli β-Glucuronidase through In Silico Virtual Screening” (The Scientific World Journal, 2015).

Experiments:
[1] = target: T1, E. coli β-glucuronidase (eβG) (Escherichia coli, UniProt P05804); test: In vitro βG-activity assay (pNPG hydrolysis), eβG; format: biochemical; conditions: 50 μM compound, pH 7.3, percent of activity vs untreated control
T1 construct: histidine tag (N); made in house; host or cells: E. coli BL21 (DE3)
T1 sequence (P05804 whole entry): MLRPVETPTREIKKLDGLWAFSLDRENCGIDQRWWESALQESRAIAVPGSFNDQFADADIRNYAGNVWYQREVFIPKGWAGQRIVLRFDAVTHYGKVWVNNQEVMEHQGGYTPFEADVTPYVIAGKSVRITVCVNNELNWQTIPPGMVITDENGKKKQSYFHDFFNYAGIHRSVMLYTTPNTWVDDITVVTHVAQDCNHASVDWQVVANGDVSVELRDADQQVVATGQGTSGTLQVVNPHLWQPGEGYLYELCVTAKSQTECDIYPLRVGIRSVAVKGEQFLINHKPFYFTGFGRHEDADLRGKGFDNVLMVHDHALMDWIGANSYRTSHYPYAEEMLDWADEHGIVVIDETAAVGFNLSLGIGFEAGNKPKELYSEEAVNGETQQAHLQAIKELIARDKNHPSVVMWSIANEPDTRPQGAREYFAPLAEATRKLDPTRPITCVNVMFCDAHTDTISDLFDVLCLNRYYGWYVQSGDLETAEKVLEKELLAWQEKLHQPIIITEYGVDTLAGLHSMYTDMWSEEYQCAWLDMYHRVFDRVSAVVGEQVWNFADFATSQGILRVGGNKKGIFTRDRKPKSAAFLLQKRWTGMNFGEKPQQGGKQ
Method: (§1) Plasmid pRESTB containing βG gene and a histidine tag at the N-terminus was constructed as described. Recombinant βG (human and E. coli) was produced by isopropyl β-D-thiogalactopyranoside (IPTG) induction of BL21 (DE3) bacteria. βG was purified from bacterial supernatants by affinity chromatography on nickels Sepharose 6 Fast Flow (GE Healthcare). The column was washed by phosphate-buffered saline (PBS), with 50 mM imidazole, and βG was eluted by PBS with 250 mM imidazole. The purified βG was desalted on a Sephadex G-25 column equilibrated with PBS and stored at −80°C.
The candidate compounds were purchased from SPECS (The Netherlands). Each candidate was provided as a solid power and dissolved in 100% DMSO (Sigma-Aldrich) to 10 mM as stock. Candidates were screened for their inhibition specificity of eβG versus hβG, which were conducted at pH 7.3 or pH 5.4, in triplicate, respectively. 40 μL purified βG was treated with 10 μL compound solution at 37°C for 30 min and sequentially incubated with 50 μL of pNPG (Sigma-Aldrich) at 37°C for 30 min. Reactions were quenched with 5 μL of 2 N sodium hydroxide (Sigma-Aldrich). Each reaction consisted of 3.75 ng purified βG, 50 μM compound, and 5 mM pNPG in PBS containing 10% DMSO and 0.05% BSA (Sigma-Aldrich). βG-activities were measured by color development of pNP detected on a microplate reader at OD 405 nm. […] For IC50 determination, compounds at various concentrations (100 μM to 0.001 μM) were added.
Supplementary file 740815.f1.pdf: Fifty-nine candidate compounds were acquired from the initial virtually screening which was designed to target the bacterial loop of eβG and its active site. The docking energy scores of 59 candidate compounds measured by the DOCK program are -43 to -55 kcal/mol. (Table S1) The candidate compounds were purchased from SPECS (Zoetermeer, The Netherlands). Each candidate was rovided as a solid power and dissolved in 100% DMSO (Sigma-Aldrich, MO, USA) to 10 mM as stock. Candidates were screening for their inhibition specificity of eβG verse hβG, which were conducted at pH 7.3 or pH 5.4 in triplicate, respectively. 40 µL purified βG was treated with 10 µL compound solution at 37 °C for 30 min, and sequentially incubated with 50 µL of pNPG (Sigma-Aldrich) at 37 °C for 30 min. Reactions were quenched with 5 µL of 2 N sodium hydroxide (Sigma-Aldrich). Each reaction consisted of 3.75 ng purified βG, 50 µM compound, and 5 mM pNPG in PBS containing 10% DMSO and 0.05% BSA (Sigma-Aldrich). βG-activities were measured by color development of pNP detected on a microplate reader at OD 405 nm. […] Especially, the inhibiting ability against eβG activity was >95% in 7 candidates of eβG specific inhibitors (Table S1).
(§2) Fifty-nine candidate compounds were acquired from the initial virtually screening which was designed to target the bacterial loop of eβG and its active site. The docking energy scores of 59 candidate compounds measured by the DOCK program are -43 to -55 kcal/mol. (Table S1) The candidate compounds were purchased from SPECS (Zoetermeer, The Netherlands). Each candidate was provided as a solid power and dissolved in 100% DMSO (Sigma-Aldrich, MO, USA) to 10 mM as stock. Candidates were screening for their inhibition specificity of eβG verse hβG, which were conducted at pH 7.3 or pH 5.4 in triplicate, respectively. 40 μL purified βG was treated with 10 μL compound solution at 37 °C for 30 min, and sequentially incubated with 50 μL of pNPG (Sigma-Aldrich) at 37 °C for 30 min. Reactions were quenched with 5 μL of 2 N sodium hydroxide (Sigma-Aldrich). Each reaction consisted of 3.75 ng purified βG, 50 μM compound, and 5 mM pNPG in PBS containing 10% DMSO and 0.05% BSA (Sigma-Aldrich). βG-activities were measured by color development of pNP detected on a microplate reader at OD 405 nm. […]
percent of βG activity compared with the untreated control.
Especially, the inhibiting ability against eβG activity was >95% in 7 candidates of eβG specific inhibitors (Table S1).
Table S1. […]

[2] = target: T2, human βG (hβG) (Homo sapiens, UniProt P08236); test: In vitro βG-activity assay (pNPG hydrolysis), hβG; format: biochemical; conditions: pH 5.4, percent of activity vs untreated control
T2 construct: histidine tag (N); made in house; host or cells: E. coli BL21 (DE3)
T2 sequence (P08236 23-651): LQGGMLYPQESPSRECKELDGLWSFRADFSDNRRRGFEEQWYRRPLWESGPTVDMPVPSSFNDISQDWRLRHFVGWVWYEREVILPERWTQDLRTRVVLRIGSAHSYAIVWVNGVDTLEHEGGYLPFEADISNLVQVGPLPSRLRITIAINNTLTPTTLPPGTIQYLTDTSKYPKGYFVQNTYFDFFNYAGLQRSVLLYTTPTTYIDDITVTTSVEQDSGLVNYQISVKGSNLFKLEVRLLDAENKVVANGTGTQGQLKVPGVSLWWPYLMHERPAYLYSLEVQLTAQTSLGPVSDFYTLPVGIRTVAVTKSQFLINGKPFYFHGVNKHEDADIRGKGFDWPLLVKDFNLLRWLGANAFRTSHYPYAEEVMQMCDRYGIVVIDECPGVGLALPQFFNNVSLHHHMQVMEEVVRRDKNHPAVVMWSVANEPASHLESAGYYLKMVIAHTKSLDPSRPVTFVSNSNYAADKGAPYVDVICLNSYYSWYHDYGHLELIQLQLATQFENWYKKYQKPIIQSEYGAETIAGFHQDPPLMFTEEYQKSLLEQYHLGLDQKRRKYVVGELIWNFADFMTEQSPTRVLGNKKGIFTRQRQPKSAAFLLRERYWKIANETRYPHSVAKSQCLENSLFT
Method: as §1
The candidate compounds were purchased from SPECS (The Netherlands). Each candidate was provided as a solid power and dissolved in 100% DMSO (Sigma-Aldrich) to 10 mM as stock. Candidates were screened for their inhibition specificity of eβG versus hβG, which were conducted at pH 7.3 or pH 5.4, in triplicate, respectively. 40 μL purified βG was treated with 10 μL compound solution at 37°C for 30 min and sequentially incubated with 50 μL of pNPG (Sigma-Aldrich) at 37°C for 30 min. Reactions were quenched with 5 μL of 2 N sodium hydroxide (Sigma-Aldrich). Each reaction consisted of 3.75 ng purified βG, 50 μM compound, and 5 mM pNPG in PBS containing 10% DMSO and 0.05% BSA (Sigma-Aldrich). βG-activities were measured by color development of pNP detected on a microplate reader at OD 405 nm.
as §2, with “(Table” for “Fifty-nine candidate compounds were acquired from the initial virtually screening which was designed to target the bacterial loop of eβG and its active site. The docking energy scores of 59 candidate compounds measured by the DOCK program are -43 to -55 kcal/mol. (Table”, “rovided” for “provided”, “µL” for “μL”, “µM” for “μM”
candidate compounds were purchased from SPECS (Zoetermeer, The Netherlands). Each candidate was provided as a solid power and dissolved in 100% DMSO (Sigma-Aldrich, MO, USA) to 10 mM as stock. Candidates were screening for their inhibition specificity of eβG verse hβG, which were conducted at pH 7.3 or pH 5.4 in triplicate, respectively. 40 μL purified βG was treated with 10 μL compound solution at 37 °C for 30 min, and sequentially incubated with 50 μL of pNPG (Sigma-Aldrich) at 37 °C for 30 min. Reactions were quenched with 5 μL of 2 N sodium hydroxide (Sigma-Aldrich). Each reaction consisted of 3.75 ng purified βG, 50 μM compound, and 5 mM pNPG in PBS containing 10% DMSO and 0.05% BSA (Sigma-Aldrich). βG-activities were measured by color development of pNP detected on a microplate reader at OD 405 nm.

CC1(C)CC(O)C(C(O)c2cccc([N+](=O)[O-])c2)C(C)(C)N1 (stereo not drawn) [Compound 4021]
eβG activity (%) with 50 μM compound [1]: 28.56% | hβG activity (%) with 50 μM compound [2]: 103.06%

Cc1ccccc1NC(=O)c1cccc(NC(=O)c2cc(Cl)c(Cl)cc2C(=O)O)c1 [Compound 1306]
eβG activity (%) with 50 μM compound [1]: 29.20% | hβG activity (%) with 50 μM compound [2]: 105.45%

NC1=C2N=C(c3ccc([N+](=O)[O-])cc3)NN2NN1 [Compound 8013a]
eβG activity (%) with 50 μM compound [1]: 60.40% | hβG activity (%) with 50 μM compound [2]: 100.33%

COc1ccc(Cl)cc1NC(=O)CC(C(=O)O)N1CCNCC1 (stereo not drawn) [Compound 9183]
eβG activity (%) with 50 μM compound [1]: 39.67% | hβG activity (%) with 50 μM compound [2]: 107.36%

O=S(=O)(c1ccc(Br)cc1)N1CCNCC1 [Compound 8329]
eβG activity (%) with 50 μM compound [1]: 33.19% | hβG activity (%) with 50 μM compound [2]: 97.77%

O=C1C=C(Nc2cccc3cc(S(=O)(=O)O)ccc23)c2ccccc2C1=O [Compound 4277]
eβG activity (%) with 50 μM compound [1]: 44.37% | hβG activity (%) with 50 μM compound [2]: 115.21%

O=C(Nc1ccc(S(=O)(=O)N2CCCC2)cc1)c1[nH]ncc1[N+](=O)[O-] [Compound 6843]
eβG activity (%) with 50 μM compound [1]: 27.49% | hβG activity (%) with 50 μM compound [2]: 108.76%

COc1cc(C(=O)OC(C)CN2CCN(C)CC2)cc(OC)c1OC (stereo not drawn) [Compound 3250]
eβG activity (%) with 50 μM compound [1]: 33.62% | hβG activity (%) with 50 μM compound [2]: 96.94%

O=C(O)c1ccc(NS(=O)(=O)c2ccc(Br)cc2)cc1O [Compound 4465]
eβG activity (%) with 50 μM compound [1]: 10.04% | hβG activity (%) with 50 μM compound [2]: 99.50%

Cc1ccc2c(c1)C1CN(C)CCC1N2C(=O)c1cc(Cl)ccc1[N+](=O)[O-] (stereo not drawn) [Compound 3959]
eβG activity (%) with 50 μM compound [1]: 42.88% | hβG activity (%) with 50 μM compound [2]: 105.45%

CN(C)CCCNS(=O)(=O)c1ccc2c3c(cccc13)C(=O)N2 [Compound 8010]
eβG activity (%) with 50 μM compound [1]: 23.58% | hβG activity (%) with 50 μM compound [2]: 98.84%

CCN1C(=O)c2cccc3c(S(=O)(=O)N4CCN(C)CC4)ccc1c23 [Compound 1046]
eβG activity (%) with 50 μM compound [1]: 45.94% | hβG activity (%) with 50 μM compound [2]: 106.69%

CCN(CC)S(=O)(=O)c1cccc(N=Nc2c(O)[nH]c(=O)[nH]c2=O)c1 [Compound 9274]
eβG activity (%) with 50 μM compound [1]: 32.34% | hβG activity (%) with 50 μM compound [2]: 106.69%

COc1ccc(N2C(=O)CC(NC3CCCCNC3=O)C2=O)cc1 (stereo not drawn) [Compound 7007]
eβG activity (%) with 50 μM compound [1]: 44.30% | hβG activity (%) with 50 μM compound [2]: 105.79%

CC1=C(C)CC(C(=O)Nc2c(C)cccc2C)C(C(=O)O)C1 (stereo not drawn) [Compound 5259]
eβG activity (%) with 50 μM compound [1]: 34.05% | hβG activity (%) with 50 μM compound [2]: 106.20%

CN1CCN(CC(=O)Nc2c(C#N)cnn2-c2ccccc2)CC1 [Compound 0220]
eβG activity (%) with 50 μM compound [1]: 47.15% | hβG activity (%) with 50 μM compound [2]: 113.55%

Cc1cccc2n(C)c(/C=N/N=C(N)N)c[n+]12 [Compound 0956]
eβG activity (%) with 50 μM compound [1]: 29.70% | hβG activity (%) with 50 μM compound [2]: 103.31%

CC1=NN(c2ccc(Cl)cc2)C(=O)/C1=C\N1CCN(C)CC1 [Compound 6003]
eβG activity (%) with 50 μM compound [1]: 9.76% | hβG activity (%) with 50 μM compound [2]: 93.06%

CN1CCN(Cc2nc3sc4c(c3c(=O)[nH]2)CCCC4)CC1 [Compound 3181]
eβG activity (%) with 50 μM compound [1]: 30.27% | hβG activity (%) with 50 μM compound [2]: 88.02%

O=C(NC(NCc1ccco1)C(Cl)(Cl)Cl)c1ccc(Br)cc1 (stereo not drawn) [Compound 6019]
eβG activity (%) with 50 μM compound [1]: 33.83% | hβG activity (%) with 50 μM compound [2]: 104.96%

Cc1cc(NS(=O)(=O)c2ccc(NC(=O)C(C)Oc3ccc(Cl)cc3Cl)cc2)no1 (stereo not drawn) [Compound 8889]
eβG activity (%) with 50 μM compound [1]: 11.40% | hβG activity (%) with 50 μM compound [2]: 102.15%
